Experimental data from ChEMBL document CHEMBL1134423, “Synthesis and acetylcholinesterase inhibition of 5-desamino huperzine A derivatives” (Bioorg Med Chem Lett, 2001).

What was measured:
Acetylcholinesterase [1] = target: T1, Acetylcholinesterase (Rattus norvegicus, UniProt P37136); test: Compound was tested for its ability to inhibit acetylcholinesterase (AChE) in rat brain; type: tissue-based
T1 sequence (P37136 whole entry): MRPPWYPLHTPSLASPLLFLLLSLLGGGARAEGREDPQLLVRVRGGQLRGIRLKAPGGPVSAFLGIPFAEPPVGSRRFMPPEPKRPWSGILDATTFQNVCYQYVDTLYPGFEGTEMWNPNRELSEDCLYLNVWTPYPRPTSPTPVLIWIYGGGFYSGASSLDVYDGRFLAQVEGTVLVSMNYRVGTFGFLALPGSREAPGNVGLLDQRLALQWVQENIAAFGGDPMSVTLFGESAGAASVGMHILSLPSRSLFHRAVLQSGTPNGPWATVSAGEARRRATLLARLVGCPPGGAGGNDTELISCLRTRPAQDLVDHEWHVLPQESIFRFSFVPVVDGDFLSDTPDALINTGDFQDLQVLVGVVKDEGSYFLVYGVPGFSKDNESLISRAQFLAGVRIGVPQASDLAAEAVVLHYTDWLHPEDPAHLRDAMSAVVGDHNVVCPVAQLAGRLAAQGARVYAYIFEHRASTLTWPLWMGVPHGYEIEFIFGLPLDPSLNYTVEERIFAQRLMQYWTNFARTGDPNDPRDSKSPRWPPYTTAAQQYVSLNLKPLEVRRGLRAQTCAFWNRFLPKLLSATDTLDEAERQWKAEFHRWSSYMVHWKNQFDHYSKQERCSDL

Acetylcholinesterase [2] = target: T1, Acetylcholinesterase

Row | SMILES | IC50 (Acetylcholinesterase [1]) | Ki (Acetylcholinesterase [1]) | Ki (Acetylcholinesterase [2])
1 | C/C=C1\C2C=C(C)CC1c1ccc(O)nc1C2 (configuration not stated) | 12.8 µM | 2 µM | 
2 | CC1=CC2Cc3nc(O)ccc3C(C1)C2=O (configuration not stated) | > 500 µM | > 500 µM | 
3 | C/C=C1/C2C=C(C)CC1c1ccc(=O)[nH]c1C2 (configuration not stated) | 55.5 µM | 12.3 µM | 
4 | C/C=C1\[C@H]2C=C(C)C[C@]1(N)c1ccc(=O)[nH]c1C2 [HUPERZINE A] |  |  | 0.024 µM
